Assays:
[1] = tested on: Porcine Smooth Muscle Cell; experiment: Cell proliferation using 3H thymidine incorporation; assay type: cell-based; settings: for IC50: serum/growth factor stimulated cells, 3H thymidine incorporation, 24-36 h, read-out: Porcine Smooth Muscle Cell Antiproliferation IC50; for inhibition at 500 µM: Sus scrofa, read-out: Porcine Smooth Muscle Cell Antiproliferation, % inhibition
Method: Effects of Compounds on Cell Proliferation Using ^3H Thymidine Incorporation
Human and porcine smooth muscle cells were tested in early passage (generally passage 3-7) at sub-confluent conditions. Cultures were grown in 16 mm (24 well) multi-well culture dishes in medium 199 supplemented with 10% fetal bovine serum and 2% antibiotic/antimycotic. At sub-confluence, the cells were placed in a defined serum free medium (AIM-V; Gibco) for 24-48 h prior to initiating the experimental protocol.
Compounds were added to each well at 50 fold dilution (20 μL/well) and the plates were incubated for 24-36 h at 37° C. in 5% CO2. Compounds were initially dissolved in 50% ethanol and serially diluted into media. Compounds were routinely evaluated at concentrations from 1 to 100 μM. As a control, grade II porcine intestinal mucosal heparin (sodium salt) was routinely evaluated in all cell preparations at concentrations from 0.1 to 100 μg/mL.
At the completion of the test procedure, plates were placed on ice, washed three times with ice cold phosphate buffered saline (PBS) and incubated in ice cold 10% trichloroacetic acid (TCA) got 30 min to remove acid soluble proteins. Solution was transferred to scintillation vials containing 0.4 N HCl (500 μL/vial to neutralize NaOH) and each well was rinsed two times with water (500 μL) for a total volume of 2 mL/vial.
Data was obtained, in triplicate, for both control and experimental samples. Control (100%) data was obtained from maximally stimulated cells, as the result of growth factor or serum stimulation. Experimental data was obtained from cells maximally stimulated with growth factor or serum and treated with compound. Data are expressed as an IC50 in Table I below.

Work on “N-[5-(Deca-O-sulfo-β-D-maltotriosyloxymethyl)-2-chloro-phenyl]-acetamide decasodium salt [Example 4]” yielded an IC50 [1] of 112 µM.

“N-[5-(Deca-O-acetyl-β-D-maltotriosyloxymethyl)-2-chloro-phenyl]-acetamide [Example 2]” gave an IC50 [1] of 22.5 µM.

“5-(Deca-O-acetyl-β-D-maltotriosyloxymethyl)-2-chloro-1-nitrobenzene [Example 1]” showed an IC50 [1] of 1.8 µM.

`CC(=O)Nc1cc(COC2OC(CO)C(OC3OC(CO)C(OC4OC(CO)C(O)C(O)C4O)C(O)C3O)C(O)C2O)ccc1Cl` [Example 3, N-[5-(β-D-maltotriosyloxymethyl)-2-chloro-phenyl]-acetamide] showed an inhibition at 500 µM [1] of 10% and a melting point of 135 to 148 °C.

With `Nc1cc(COC2OC(CO)C(OC3OC(CO)C(OC4OC(CO)C(O)C(O)C4O)C(O)C3O)C(O)C2O)ccc1Cl` [Example 5, 5-(β-D-maltotriosyloxymethyl)-2-chloro-phenylamine] the inhibition at 500 µM [1] was 25% and the melting point was 95 to 134 °C.

Reference: US6451767B1, “Benzylmaltotriosides as inhibitors of smooth muscle cell proliferation” (Wyeth, priority 1998, dated 2002)
